Where a name gives a salt, the structure may show the parent alone.

For orientation: IC90 means the point of the concentration-response curve where the effect stands at 90%.

The subject of the first experiment is Acinetobacter baumannii ATCC17961. In words: Antimicrobial susceptibility testing: 90% growth inhibitory concentration (IC90) determination in Iso-Sensitest broth, OD600 growth. The format is cell-based. Conditions: Acinetobacter baumannii, ATCC17961, 16 h, read-out: A. baumannii ATCC 17961 IC90 (uM), strain ATCC 17961, OD600 growth over 16 h. In short, it runs like this:
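Growth monitored at 600 nm every 20 min for 16 h at 35±2 °C, inoculum ~5×10^(5) CFU/ml in Iso-Sensitest medium. Compounds in 10-point twofold series, e.g. 50 to 0.097 μM final; 90% inhibitory concentration taken from log-phase growth.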
As for `N#CCCn1cc(-c2cnc3c(Nc4ccc(C(=O)N5CCN(C(=O)CCN)CC5)c(Cl)c4)nccn23)c(C(F)(F)F)n1` [Example 256, 3-[4-[8-[4-[4-(3-aminopropanoyl)piperazine-1-carbonyl]-3-chloroanilino]imidazo[1,2-a]pyrazin-3-yl]-3-(trifluoromethyl)pyrazol-1-yl]propanenitrile formate], the IC90 is 0.358 µM.
Still for that read-out and setting: to `CCc1cc(Nc2nccn3c(-c4cn(CC(F)F)nc4C(F)(F)F)cnc23)ccc1C(=O)NCCNC(=O)C1CCNCC1` [Example 554, N-(2-(4-((3-(1-(2,2-difluoroethyl)-3-(trifluoromethyl)-1H-pyrazol-4-yl)imidazo[1,2-a]pyrazin-8-yl)amino)-2-ethylbenzamido)ethyl) piperidine-4-carboxamide formate] belongs 0.198 µM; to `CCc1cc(Nc2nccn3c(-c4cn(CC#N)nc4C(F)(F)F)cnc23)ccc1C(=O)NCC(=O)N1CC[C@H](N)C1` [Example 681, N-[2-[(3S)-3-aminopyrrolidin-1-yl]-2-oxo-ethyl]-4-[[3-[1-(cyanomethyl)-3-(trifluoromethyl)pyrazol-4-yl]imidazo[1,2-a]pyrazin-8-yl]amino]-2-ethyl-benzamide formate], 0.327 µM; to `CCc1cc(Nc2nccn3c(-c4cn(CC#N)nc4C(F)(F)F)cnc23)ccc1C(=O)N[C@H](C)C(=O)N[C@@H]1CCNC1` [Example 803, 4-[[3-[1-(cyanomethyl)-3-(trifluoromethyl)pyrazol-4-yl]imidazo[1,2-a]pyrazin-8-yl]amino]-2-ethyl-N-[(1R)-1-methyl-2-oxo-2-[[(3R)-pyrrolidin-3-yl]amino]ethyl]benzamide formate], 3.77 µM.
As to `Cc1cc(Nc2nccn3c(-c4c[nH]nc4C(F)(F)F)cnc23)ccc1C(=O)N1CCN(C(=O)NCCCN)CC1` [Example 417, N-(3-aminopropyl)-4-[2-methyl-4-[[3-[3-(trifluoromethyl)-1H-pyrazol-4-yl]imidazo[1,2-a]pyrazin-8-yl]amino]benzoyl]piperazine-1-carboxamide formate], the IC90 came out at 0.506 µM.
The same measure, in the same setting: to `NCCN1CCN(C(=O)c2ccc(Nc3nccn4c(-c5c[nH]nc5C(F)(F)F)cnc34)cc2Cl)CC1` [Example 571, (4-(2-aminoethyl)piperazin-1-yl)(2-chloro-4-((3-(3-(trifluoromethyl)-1H-pyrazol-4-yl)imidazo[1,2-a]pyrazin-8-yl)amino)phenyl) methanone formate] belongs 0.192 µM; to `Cc1cc(Nc2nccn3c(-c4cn(C)nc4C(F)(F)F)cnc23)ccc1C(=O)N1CCN(C(=O)N[C@@H]2CNC[C@H]2O)CC1` [Example 469, formic acid; N-[(3R,4R)-4-hydroxypyrrolidin-3-yl]-4-[2-methyl-4-[[3-[1-methyl-3-(trifluoromethyl)pyrazol-4-yl]imidazo[1,2-a]pyrazin-8-yl]amino]benzoyl]piperazine-1-carboxamide], 0.705 µM.

Still in this experiment, the particulars now being: Acinetobacter baumannii, ATCC17961, 16 h, strain ATCC 17961, OD600 growth over 16 h, read-out: A. baumannii ATCC 17961 IC90.
Take `C#CCn1cc(-c2cnc3c(Nc4cc(C)c(C(=O)N[C@H](C)CN)c(F)c4)nccn23)c(C(F)(F)F)n1` [Example 662, (R)-N-(1-aminopropan-2-yl)-2-fluoro-6-methyl-4-((3-(1-(prop-2-yn-1-yl)-3-(trifluoromethyl)-1H-pyrazol-4-yl)imidazo [1,2-a]pyrazin-8-yl)amino)benzamide]: the IC90 was 0.284 µM.
The same measure, in the same setting: to `CCc1cc(Nc2nccn3c(-c4cn(CC#N)nc4C(F)(F)F)cnc23)ccc1C(=O)NCCCCCN` [Example 329, N-(5-aminopentyl)-4-[[3-[1-(cyanomethyl)-3-(trifluoromethyl)pyrazol-4-yl]imidazo[1,2-a]pyrazin-8-yl]amino]-2-ethylbenzamide] belongs 0.211 µM; to `CCc1cc(Nc2nccn3c(-c4cn(CC(F)F)nc4C(F)F)cnc23)ccc1C(=O)N1CCN(C(=O)[C@H]2C[C@H](N)C2)CC1` [Example 743, (4-((1r,3r)-3-aminocyclobutane-1-carbonyl)piperazin-1-yl)(4-((3-(1-(2,2-difluoroethyl)-3-(difluoromethyl)-1H-pyrazol-4-yl)imidazo[1,2-a]pyrazin-8-yl)amino)-2-ethylphenyl) methanone], 0.532 µM; to `C[C@@H](NC(=O)c1ccc(Nc2nccn3c(-c4cn(CC#N)nc4C(F)(F)F)cnc23)cc1Cl)C(=O)N[C@H]1CCNC1` [Example 710, 2-chloro-4-[[3-[1-(cyanomethyl)-3-(trifluoromethyl)pyrazol-4-yl]imidazo[1,2-a]pyrazin-8-yl]amino]-N-[(1R)-1-methyl-2-oxo-2-[[(3S)-pyrrolidin-3-yl]amino]ethyl] benzamide formate], 0.408 µM.
Still for that read-out and setting: to `O=C(c1ccc(Nc2nccn3c(-c4cn(CC(F)F)nc4C(F)(F)F)cnc23)cc1Cl)N1CCN(C(=O)[C@H]2[C@@H]3CNC[C@@H]32)CC1` [Example 519, (4-((1R,5S,6r)-3-azabicyclo[3.1.0]hexane-6-carbonyl)piperazin-1-yl)(2-chloro-4-((3-(1-(2,2-difluoroethyl)-3-(trifluoromethyl)-1H-pyrazol-4-yl)imidazo[1,2-a]pyrazin-8-yl)amino)phenyl) methanone formate] belongs 0.147 µM; to `N[C@@H]1CC[C@H](C(=O)N2CCN(C(=O)c3ccc(Nc4nccn5c(-c6cn(CC(F)F)nc6C(F)(F)F)cnc45)cc3F)CC2)C1` [Example 806, (4-((1S,3R)-3-aminocyclopentane-1-carbonyl)piperazin-1-yl)(4-((3-(1-(2,2-difluoroethyl)-3-(trifluoromethyl)-1H-pyrazol-4-yl)imidazo[1,2-α]pyrazin-8-yl)amino)-2-fluorophenyl)methanone hydrochloride], 0.25 µM; to `CCc1cc(Nc2nccn3c(-c4cn(CC#N)nc4C(F)(F)F)cnc23)ccc1C(=O)NCC(=O)N1CC[C@@H](N)C1` [Example 504, N-[2-[(3R)-3-aminopyrrolidin-1-yl]-2-oxo-ethyl]-4-[[3-[1-(cyanomethyl)-3-(trifluoromethyl)pyrazol-4-yl]imidazo[1,2-a]pyrazin-8-yl]amino]-2-ethyl-benzamide formate], 0.238 µM.
Still for that read-out and setting: to `C=CCn1cc(-c2cnc3c(Nc4ccc(C(=O)NCCOCCN)c(CC)c4)nccn23)c(C(F)F)n1` [Example 121, N-[2-(2-aminoethoxy)ethyl]-4-[[3-[3-(difluoromethyl)-1-prop-2-enylpyrazol-4-yl]imidazo[1,2-a]pyrazin-8-yl]amino]-2-ethylbenzamide] belongs 0.201 µM; to `NCCC(=O)NCCCNC(=O)c1ccc(Nc2nccn3c(-c4c[nH]nc4C(F)(F)F)cnc23)cc1Cl` [Example 338, N-[3-(3-aminopropanoylamino)propyl]-2-chloro-4-[[3-[3-(trifluoromethyl)-1H-pyrazol-4-yl]imidazo[1,2-a]pyrazin-8-yl]amino]benzamide hydrochloride], 0.691 µM.
For the molecule `CCc1cc(Nc2nccn3c(-c4cn(CC#N)nc4C(F)(F)F)cnc23)ccc1C(=O)N[C@H](C)CN` [Example 109, N-[(2R)-1-aminopropan-2-yl]-4-[[3-[1-(cyanomethyl)-3-(trifluoromethyl)pyrazol-4-yl]imidazo[1,2-a]pyrazin-8-yl]amino]-2-ethylbenzamide], the IC90 came out at 0.333 µM.

These data come from patent publication US20230203043A1, “NOVEL IMIDAZOPYRAZINE DERIVATIVES” (Hoffmann-La Roche Inc., priority 2020, published 2023).
